Measured values from ChEMBL document CHEMBL5726278, “Cytochrome P450 inhibitors and their method of use” (2017).

Assay: Cyp21 Assay : Cyp21 assay protocol: AD293 cells that stably over-express recombinant CYP-21 were seeded in 96 well plates coated with poly D-lysine (10,000 cell per well) and incubated at 37° C. for 24 hours in Dulbecco's Modified Eagle Medium (DMEM) with Fetal Bovine Serum (FBS) that is stripped of hormones by charcoal treatment. The media is then removed, the cells are washed once with Phosphate buffer saline solution, and 50 μL Dulbecco's Modified Eagle Medium (DMEM) with Fetal Bovine Serum (FBS) that is stripped of hormones by charcoal treatment is added. Compounds of the disclosure are then added to the wells in eight concentration spanning 10 μM to 4.5 nM, and the plates are incubated for an additional 60 minutes at 37° C. 17α-OH Progesterone is then added (1.0 μM) and the plates are incubated for an additional 45 minutes at 37° C. After incubation, 50 uL of the supernatant (medium) is transferred into a fresh plate and 150 uL of an acetonitrile solution containing 200 ng/ml of Telmisartan is added. The sample is mixed and then placed in a centrifuge at 2000 rpm for 5 minutes.
Conditions: AD293, 24 h

Row | Compound | IC50 [nM]
1 | CS(=O)(=O)N1CCN(c2ccc(/C=C/c3cc(F)cc(Cn4ccnc4)c3)cc2)CC1 | 10000
2 | CS(=O)(=O)N1CCN(c2ccc(/C=C/c3cc(Cl)cc(-c4ccncc4)c3)cc2)CC1 | 840
3 | CS(=O)(=O)N1CCN(c2ccc(/C=C/c3cc(Cl)cc(Cn4ccnc4)c3)cc2)CC1 | 2200
4 | CS(=O)(=O)N1CCN(c2ccc(/C=C/c3cc(F)cc(-c4ccncc4)c3)cc2)CC1 | 740
5 | N=C(N)N1CCN(c2ccc(/C=C/c3cc(F)cc(Cn4ccnc4)c3)cc2)CC1 | 10000
6 | Clc1cc(/C=C/c2ccc(N3CCN(C4=NCCO4)CC3)cc2)cc(-c2ccncc2)c1 | 1200
7 | CC(C)S(=O)(=O)N1CCN(c2ccc(/C=C/c3cc(Cl)cc(-c4ccncc4)c3)cc2)CC1 | 565
8 | CC(C)S(=O)(=O)N1CCN(c2ccc(/C=C/c3cc(F)cc(Cn4ccnc4)c3)cc2)CC1 | 700
9 | Fc1cc(/C=C/c2ccc(N3CCN(C4=NCCCO4)CC3)cc2)cc(Cn2ccnc2)c1 | 1000
10 | N=C(N)N1CCN(c2ccc(/C=C/c3cc(Cl)cc(Cn4ccnc4)c3)cc2)CC1 | 10000
11 | N=C(N)N1CCN(c2ccc(/C=C/c3cc(F)cc(-c4ccncc4)c3)cc2)CC1 | 10000
12 | O=S(=O)(C1CC1)N1CCN(c2ccc(/C=C/c3cc(Cl)cc(-c4ccncc4)c3)cc2)CC1 | 416
13 | Clc1cc(/C=C/c2ccc(N3CCN(C4=NCCO4)CC3)cc2)cc(Cn2ccnc2)c1 | 3500
14 | Fc1cc(/C=C/c2ccc(N3CCN(C4=NCCO4)CC3)cc2)cc(Cn2ccnc2)c1 | 10000
15 | Fc1cc(/C=C/c2ccc(N3CCN(C4=NCCO4)CC3)cc2)cc(-c2ccncc2)c1 | 1200
16 | N=C(N)N1CCN(c2ccc(/C=C/c3cc(Cl)cc(-c4ccncc4)c3)cc2)CC1 | 10000
17 | [C-]#[N+]CS(=O)(=O)N1CCN(c2ccc(/C=C/c3cc(F)cc(Cn4ccnc4)c3)cc2)CC1 | 10000
